This passage reports IC50 results from ChEMBL document CHEMBL5335773, “Synthesis and structure-activity relationship of new nicotinamide phosphoribosyltransferase inhibitors with antitumor activity on solid and haematological cancer” (Eur J Med Chem, 2023).

Each structure is given as a SMILES string.

Assay [1] relates to MIA PaCa-2. Put plainly: cells. Conditions: Homo sapiens, MIA PaCa-2, 24 h.
Assay [2] concerns MIA PaCa-2. Put plainly: cells. Conditions: Homo sapiens, MIA PaCa-2, 72 h.
Assay [3] concerns ML-2. Kind of assay: Cytotoxicity against human ML-2 cells assessed as inhibition of cell viability at 72 hrs by SRB assay. The format is functional, cell-based. Conditions: ML-2, 72 h. A general note: Sulforhodamine B stains cellular protein and so reports cell mass.
In assay [4] the test system is Jurkat. Kind of assay: Cytotoxicity against human Jurkat cells assessed as inhibition of cell viability at 72 hrs by SRB assay. The format is functional, cell-based.
For assay [5], the system named is RPMI-8226. Put plainly: Cytotoxicity against human RPMI-8226 cells assessed as inhibition of cell viability at 72 hrs by SRB assay. The format is functional, cell-based. Conditions: RPMI-8226, 72 h.
Assay [6] has as its system NAMALVA. Put plainly: Cytotoxicity against human NAMALVA cells assessed as inhibition of cell viability at 72 hrs by SRB assay. It counts as functional, cell-based.
Assay [7] concerns NB-4. Put plainly: Cytotoxicity against human NB4 cells assessed as inhibition of cell viability at 72 hrs by SRB assay. The format is functional, cell-based. Conditions: NB-4, 72 h.
Assay [8] has as its target Nicotinamide phosphoribosyltransferase (Homo sapiens, UniProt P43490). Put plainly: Inhibition of full-length recombinant human NAMPT (2 to 491 residues) expressed in Escherichia coli using NAM as substrate preincubated for 5 mins followed by substrate addition measured after 15 mins by fluorescence based assay.

Chain of Nicotinamide phosphoribosyltransferase (P43490 whole entry, the tested form may be a part): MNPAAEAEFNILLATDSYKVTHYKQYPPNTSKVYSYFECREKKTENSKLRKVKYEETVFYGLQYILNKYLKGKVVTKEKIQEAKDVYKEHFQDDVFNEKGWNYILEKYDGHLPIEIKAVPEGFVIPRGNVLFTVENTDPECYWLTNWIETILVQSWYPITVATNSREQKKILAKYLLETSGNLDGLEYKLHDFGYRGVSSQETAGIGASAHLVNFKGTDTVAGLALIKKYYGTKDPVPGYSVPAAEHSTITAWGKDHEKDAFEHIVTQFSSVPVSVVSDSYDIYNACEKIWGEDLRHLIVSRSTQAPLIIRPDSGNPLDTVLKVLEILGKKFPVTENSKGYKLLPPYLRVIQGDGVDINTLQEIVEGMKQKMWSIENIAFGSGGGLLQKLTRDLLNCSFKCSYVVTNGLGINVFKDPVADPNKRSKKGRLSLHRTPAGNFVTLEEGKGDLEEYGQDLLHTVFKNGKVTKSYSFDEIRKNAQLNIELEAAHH

The IC50 is the concentration that inhibits the measured activity by half. In the case of `N#C/N=C(\NCCCCCCC(=O)N(CCCN1CCCC1)Cc1ccco1)Nc1ccncc1`, the IC50 in assay [1] came out at 2 nM; in assay [2], 4.5 nM.

`N#C/N=C(\NCCCCCCC(=O)N(Cc1ccco1)C1CCCC1)N1Cc2ccccc2C1` displayed an IC50 in assay [2] of over 1000 nM.

Turning to `N#C/N=C(\NCCCCCCn1cc(CN(CCCN2CCOCC2)Cc2ccco2)nn1)Nc1ccncc1`, the concentration for half-maximal inhibition (IC50) in assay [1] was found to be 2.36 nM; in assay [2], 25.8 nM.

Turning to `N#C/N=C(\NCCCCCCS(=O)(=O)N(Cc1ccco1)C1CCCC1)Nc1ccc(N=[N+]=[N-])cc1`, the half-maximal inhibitory concentration (IC50) in assay [2] was 1000 nM.

In the case of `N#C/N=C(\NCCCCCCC(=O)N(Cc1ccc(Cl)cc1)Cc1ccco1)N1Cc2ccccc2C1`, in assay [2], the IC50 was over 1000 nM.

`O=C(NCCCCCCCCn1cc(-c2cccnc2)nn1)c1cc2ccccc2[nH]1` displayed an IC50 in assay [2] of 549 nM.

Compound `O=C(CCCCCCCn1cc(-c2cccnc2)nn1)n1cccc1` gave an IC50 in assay [2] of 494 nM.

`O=C(/C=C/c1cccnc1)NCCCCC1CCN(C(=O)c2ccccc2)CC1` [DAPORINAD]: the IC50 in assay [3] came out at 0.24 nM; in assay [4], 0.73 nM; in assay [5], 0.76 nM; in assay [1], 0.34 nM; in assay [6], 0.37 nM; in assay [2], 2.4 nM. Moreover, the IC50 in assay [7] was 2 nM.

Take `N#C/N=C(\NCCCCCCC(=O)N(Cc1ccco1)c1ccc(Cl)cc1)Nc1ccncc1`: the IC50 in assay [1] was 0.17 nM; in assay [2], 1.7 nM.

Consider `N#C/N=C(\NCCCCCCCCNC(=O)c1cc2ccccc2[nH]1)Nc1cccnc1`, for which half-maximal inhibition in assay [2] (IC50) was put at 81 nM.

In turn, `N#C/N=C(\NCCCCCCC(=O)N(CCCN1CCOCC1)Cc1ccco1)N1Cc2ccccc2C1` came in with an IC50 in assay [2] of over 1000 nM.

For the compound `N#C/N=C(\NCCCCCCS(=O)(=O)N(CCCN1CCOCC1)Cc1ccco1)Nc1ccncc1`, the concentration for half-maximal inhibition (IC50) in assay [1] amounted to 1.5 nM; in assay [2], 2.26 nM.

`O=C(NCc1ccco1)c1ccc(NC(=O)N2Cc3ccccc3C2)cc1` yielded an IC50 in assay [2] of over 1000 nM.

As for `O=C(CCCCCCCNC(=S)Nc1cccnc1)NCc1ccco1`, the IC50 in assay [2] is over 1000 nM.

As to `N#C/N=C(\NCCCCCC(=O)N(Cc1ccco1)c1ccc(Cl)cc1)Nc1ccncc1`, the half-inhibitory concentration (IC50) in assay [1] is 0.5 nM; in assay [2] it was 6.3 nM.

For `N#C/N=C(\NCCCCCC(=O)N(Cc1ccco1)C1CCCC1)Nc1ccncc1`, the IC50 in assay [3] came out at 0.36 nM; in assay [5], 1.9 nM; in assay [1], 0.2 nM; in assay [6], 1.77 nM; in assay [2], 3 nM.

In assay [2], `O=C(NCCCCCCCCNC(=S)Nc1cccnc1)c1cc2ccccc2[nH]1` returned an IC50 of 605 nM.

As for `N#C/N=C(\NCCCCCCC(=O)N(Cc1ccco1)c1ccc([N+](=O)[O-])cc1)Nc1ccncc1`, the IC50 in assay [3] came to 0.32 nM; in assay [5], 2.13 nM; in assay [1], 0.14 nM; in assay [6], 1.39 nM; in assay [2] it was 2.1 nM.

`O=C(CCCCCCCNC(=S)Nc1cccnc1)n1cccc1`: in assay [2], the IC50 came to 854 nM.

In assay [2], `CCOC(=O)c1ccc(N/C(=N/C#N)NCCCCCCS(=O)(=O)N(Cc2ccco2)C2CCCC2)cc1` returned an IC50 of 738 nM.

For `COc1ccc2[nH]c(C(=O)N3CCC(CCCCn4cc(-c5cccnc5)nn4)CC3)cc2c1`, inhibition in assay [2] was half-maximal at 860 nM (IC50).

As to `N#C/N=C(\NCCCCC1CCN(C(=O)c2cc3ccccc3[nH]2)CC1)Nc1cccnc1`, the IC50 in assay [2] came out at 113 nM.

In the case of `N#C/N=C(\NCCCCCCCC(=O)NCc1ccco1)Nc1ccncc1`, the IC50 in assay [2] is over 1000 nM.

With `O=C(CCCCCCNC(=S)Nc1cccnc1)N(Cc1ccco1)C1CCCC1`, the IC50 in assay [2] was determined as 153 nM.

In turn, `O=C(c1cc2ccccc2[nH]1)N1CCC(CCCCn2cc(-c3cccnc3)nn2)CC1` registered an IC50 in assay [2] of 727 nM.

Turning to `N#C/N=C(\NCCCCCC(=O)N(CCCN1CCOCC1)Cc1ccco1)Nc1ccncc1`, the IC50 was determined as 11.2 nM in assay [1] and 16.3 nM in assay [2].

In assay [2], `O=C(CCCCCCCn1cc(-c2cccnc2)nn1)NCc1ccco1` came in with an IC50 of over 1000 nM.

The compound `O=C(c1cc2ccccc2[nH]1)N1CCC(CCCCNC(=S)Nc2cccnc2)CC1` showed an IC50 in assay [2] of over 1000 nM.

As to `O=S(=O)(CCCCCCNC(=S)Nc1cccnc1)N(Cc1ccco1)C1CCCC1`, the IC50 in assay [3] amounted to 3.1 nM; in assay [5], 20.1 nM; in assay [8], 69.1 nM; in assay [1] it was 0.43 nM; in assay [6] it was 4.23 nM; in assay [2] it was 16.4 nM.

`N#C/N=C(\NCCCCCCC(=O)N(CCCN1CCOCC1)Cc1ccco1)Nc1ccncc1`: the IC50 stood at 1.43 nM in assay [1] and 3 nM in assay [2].

On to `N#C/N=C(\NCCCCCCS(=O)(=O)N(Cc1ccco1)C1CCCC1)Nc1ccccc1`, for which the IC50 in assay [1] turned out to be 4.7 nM; in assay [2] it was 176 nM.

As to `O=C(Nc1ccc(C(=O)N(Cc2ccco2)C2CCCC2)cc1)N1Cc2ccccc2C1`, in assay [2], the IC50 is over 1000 nM.

Turning to `N#C/N=C(\NCCCCCCC(=O)N(Cc1ccco1)C1CCCC1)Nc1ccccc1`, the half-maximal inhibitory concentration (IC50) in assay [2] was over 1000 nM.
